# Laboratory results: US11773078B2, “Furin inhibitors” (Glaxosmithkline Intellectual Property Development Limited, priority 2018, dated 2023)
# Structures can show the parent of a compound that is named as a salt.
# Experiments:
# [1] = system: epithelial sodium channel (ENaC); test: Transepithelial Electrical Resistance (TEER) assay, primary CF delF508 or non-CF HBE cells (FIG. 6-9); assay type: cell-based, human; settings: compared to Example 11; only mid-μM concentrations partially effective; FIG. 8 and FIG. 9
# Experimental: Primary cultures of CF delF508 or non-CF HBE cells are seeded onto permeable filter supports and grown for 12-14 days for a significant RTE to be measured for TEER assays.
# When the ENaC is active under basal conditions (at least in part due to protease cleavage inside the cell or at the apical membrane), there is a finite RTE that is affected by the Na+ current flowing through ENaC heterotrimers (αβγ or δβγ).
# [2] = system: hydroxyproline (a specific marker for collagen) in mouse lung; test: Bleomycin induced lung fibrosis model: hydroxyproline assay; assay type: in vivo; settings: relative to levels induced by Bleomycin in vehicle treated animals, *p < 0.05
# Experimental: (§1) Preclinical pulmonary fibrosis can be induced by single instillation of Bleomycin to the mouse lung. A 15-day Bleomycin protocol was developed to evaluate compounds of the invention in vivo for their ability to inhibit TGFβ secretion and collagen deposition in the mouse lung. On the day before Bleomycin instillation, compounds were administrated to mice based on the appropriate route and frequency. On the study initiation day, under Ketamine (80 mg/kg) and Xylazine (10 mg/kg) anesthesia, all the animals were cannulated oro-tracheally and 50 μL of normal saline (Sham control) or 0.03 U Bleomycin in 50 μL saline (all groups except sham control group) was delivered into the trachea. Compounds were dosed daily until the end of study on Day 15. On termination day, animals were euthanized using CO2 inhalation. The right lung was collected, washed in normal saline, weighed, flash frozen in liquid nitrogen and stored at −80° C. for hydroxyproline (a specific marker for collagen) and TGFβ assays.
# (§2) Flash frozen whole right lung tissues were homogenized in 500 μL of RIPA buffer containing PMSF and protease inhibitor cocktail using zirconium oxide bead based homogenizer (Bullet blender Gold, NextAdvance, Germany). Briefly, tissues were spun in the homogenizer at 4° C. for three cycles of 10 minutes each at 1000 g. A complete uniform tissue mixture was obtained using this procedure. The homogenate volume was made up to 1.5 mL by adding 1 mL of RIPA buffer containing PMSF and protease inhibitor cocktail to 500 μL of homogenate. The homogenate was stored as aliquots of 100-500 μL each at −80° C.
# Acid hydrolysis: 500 μL of the homogenized lung parenchyma was transferred to glass vials, and an equal volume of 12N HCl was added (final concentration of HCl: 6N). The vials were purged with nitrogen gas, sealed and incubated overnight (16 h) under anoxic conditions at 110° C.
# Post incubation procedures: 35 μL of the sample from each tube or standard (prepared by serial dilution of hydroxyproline stock solution) was added onto a 96 well plate and the assay was performed as per the kit protocol (Quickzyme Biosciences: Cat #: QZBHYPR05). After the final color development, absorbance was measured by colorimetric analysis at 570 nm (using Thermoscan spectrum (Plate Reader) and results were recorded. Standard curve (linear graph) was generated by using hydroxyproline standards provided in the Quickzyme kit.
# [3] = molecular target: T1, furin (endogenous protease) in U20S cells (Homo sapiens, UniProt P09958); test: Furin cell-based assay (image-based, Golgi-targeted GFP with BMP10 furin/PCSK cleavage site); settings: 24-hour incubation, read-out: furin golgi cell pXC50 (converted);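 further: Read-out is mean GFP fluorescence of Golgi puncta per cell by high-content imaging, retained when furin inhibited, over an eleven-point 0.00017–10 µM series, four-parameter fit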
# T1 construct: the endogenous protease cleaves GFP; endogenous in cells; host or cells: U2OS cells transduced with a BacMam reporter
# [4] = molecular target: T2, Furin (108-574-Tev-Flag-His) enzyme (Homo sapiens, UniProt P09958); test: Furin enzyme assay; assay type: biochemical
# T2 construct: Furin (108-574-Tev-Flag-His) enzyme was expressed and purified from CHO cells; TEV cleavage site (C); FLAG (C); His (C); made in house; host or cells: CHO cells
# Method in brief: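 Compounds ran as 11-point threefold dilutions (0.00017–10 μM final) against 40 pM furin, purified from CHO cells, for 2 h at room temperature. Buffer: 100 mM HEPES pH7.5 with 1 mM CaCl2 and 0.005% Triton X-100. Envision readout. Four-parameter curve gives pXC50.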
# TGFβ in mouse lung = test: Bleomycin induced lung fibrosis model: TGFβ assay; assay type: in vivo; settings: relative to levels induced by Bleomycin in vehicle treated animals, *p < 0.05
# Experimental: as §1, §2
# Lung tissue homogenates (500 μL) were spun at 13,000 rpm for 20 minutes at 4° C. and supernatants were collected for TGFβ estimation. The assay was performed according to the manufacturer's manual (R&D systems: Cat #SMB100B). Briefly, the lung homogenates were activated by acid activation followed by neutralization to convert latent TGFβ to active TGFβ and the total TGFβ levels in supernatants were measured. Total protein levels in the lung supernatant were also determined.
# [5] = 10 mg/kg, Intra-peritoneal, Once daily
# [6] = 10 mg/kg, Intra-peritoneal, Twice daily
# T1 sequence (P09958 108-794): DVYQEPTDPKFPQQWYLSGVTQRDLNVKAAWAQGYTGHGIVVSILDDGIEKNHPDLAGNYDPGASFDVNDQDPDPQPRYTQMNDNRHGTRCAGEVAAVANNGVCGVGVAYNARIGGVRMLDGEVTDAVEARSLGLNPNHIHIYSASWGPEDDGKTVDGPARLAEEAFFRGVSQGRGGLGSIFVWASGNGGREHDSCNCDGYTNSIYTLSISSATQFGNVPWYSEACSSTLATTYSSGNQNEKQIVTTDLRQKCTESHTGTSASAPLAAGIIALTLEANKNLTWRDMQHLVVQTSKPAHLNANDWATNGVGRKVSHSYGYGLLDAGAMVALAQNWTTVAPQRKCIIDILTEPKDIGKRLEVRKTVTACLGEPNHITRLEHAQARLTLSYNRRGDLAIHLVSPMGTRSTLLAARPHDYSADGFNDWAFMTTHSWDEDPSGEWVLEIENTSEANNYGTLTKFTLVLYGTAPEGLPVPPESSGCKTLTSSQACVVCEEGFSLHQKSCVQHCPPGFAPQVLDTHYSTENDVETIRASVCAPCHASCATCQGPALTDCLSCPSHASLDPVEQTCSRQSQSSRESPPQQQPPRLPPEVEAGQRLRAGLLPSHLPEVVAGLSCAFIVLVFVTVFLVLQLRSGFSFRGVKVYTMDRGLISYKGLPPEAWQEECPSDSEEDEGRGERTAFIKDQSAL
# T2 sequence (P09958 108-574): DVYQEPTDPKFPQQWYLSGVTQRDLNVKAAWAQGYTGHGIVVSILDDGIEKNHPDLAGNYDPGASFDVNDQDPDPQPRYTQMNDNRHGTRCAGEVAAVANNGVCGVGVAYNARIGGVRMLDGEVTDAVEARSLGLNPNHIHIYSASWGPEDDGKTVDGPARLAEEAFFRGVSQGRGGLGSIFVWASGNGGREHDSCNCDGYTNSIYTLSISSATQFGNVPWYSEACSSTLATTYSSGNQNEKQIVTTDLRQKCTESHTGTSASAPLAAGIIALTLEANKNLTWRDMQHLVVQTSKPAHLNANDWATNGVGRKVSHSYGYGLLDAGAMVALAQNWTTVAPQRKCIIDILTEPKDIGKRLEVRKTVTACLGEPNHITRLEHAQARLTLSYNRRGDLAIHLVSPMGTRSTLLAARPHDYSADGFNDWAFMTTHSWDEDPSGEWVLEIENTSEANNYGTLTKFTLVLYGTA
SMILES,EC50 [3] [nM],furin enzyme pIC50 [4],"% inhibition of hydroxyproline in lung ([2]; 10 mg/kg, Oral, Once daily)","% inhibition of total TGFβ in lung (TGFβ in mouse lung; 10 mg/kg, Oral, Once daily)",also measured
"CN(C)C(=O)COC(=O)Cc1ccc(OC(=O)c2ccc(NC(=N)N)cc2)cc1 [Camostat mesylate, reference compound]",,,,,inhibitory effect in TEER assay [1]: only partially inhibitory and modestly Inhibitory
"CN1CCCN(c2ncc(Oc3cc(CN4CCC(CC(=O)O)CC4)cc(-c4cc(Cl)cc(Cl)c4)n3)cn2)CC1 [Example 126, 2-(1-((2-(3,5-Dichlorophenyl)-6-((2-(4-methyl-1,4-diazepan-1-yl)pyrimidin-5-yl)oxy)pyridin-4-yl)methyl)piperidin-4-yl)acetic acid]",6.31,9,,,"% inhibition of hydroxyproline in lung ([2]; 30 mg/kg, Oral, Once daily): 36* %; % inhibition of total TGFβ in lung (TGFβ in mouse lung; 30 mg/kg, Oral, Once daily): 34* %"
"CC(=O)NCC1CCN(Cc2cc(Oc3cnc(N4CCN(CCC(=O)O)CC4)nc3)nc(-c3cc(Cl)cc(Cl)c3)c2)CC1 [Example 263, 3-(4-(5-((4-((4-(acetamidomethyl)piperidin-1-yl)methyl)-6-(3,5-dichlorophenyl)pyridin-2-yl)oxy)pyrimidin-2-yl)piperazin-1-yl)propanoic acid]",10,9.8,,,"% inhibition of hydroxyproline in lung [2, 6]: 60* %; % inhibition of total TGFβ in lung (TGFβ in mouse lung; [6]): 86* %"
"C[C@@H](O)CN1CCN(c2ncc(Oc3cc(CN4CCC(CC(=O)O)CC4)cc(-c4cc(Cl)cc(Cl)c4)n3)cn2)CC1 [Example 298, (R)-2-(1-((2-(3,5-Dichlorophenyl)-6-((2-(4-(2-hydroxypropyl)piperazin-1-yl)pyrimidin-5-yl)oxy)pyridin-4-yl)methyl)piperidin-4-yl)acetic acid]",20,9.2,16* %,23* %,
"CN1CCCN(c2cnc(Oc3cc(CN4CCC(CC(=O)O)CC4)cc(-c4cc(Cl)cc(Cl)c4)n3)cn2)CC1 [Example 340, 2-(1-((2-(3,5-dichlorophenyl)-6-((5-(4-methyl-1,4-diazepan-1-yl)pyrazin-2-yl)oxy)pyridin-4-yl)methyl)piperidin-4-yl)acetic acid]",20,8.8,,,"% inhibition of hydroxyproline in lung ([2]; 30 mg/kg, Oral, Once daily): 21* %; % inhibition of total TGFβ in lung (TGFβ in mouse lung; 30 mg/kg, Oral, Once daily): 26* %"
"CC(=O)NCC1CCN(Cc2cc(Oc3cnc(N4CCN(CCC(C)C(=O)O)CC4)nc3)nc(-c3cc(Cl)cc(Cl)c3)c2)CC1 (stereo not drawn) [Example 369, 4-(4-(5-((4-((4-(Acetamidomethyl)piperidin-1-yl)methyl)-6-(3,5-dichlorophenyl)pyridin-2-yl)oxy)pyrimidin-2-yl)piperazin-1-yl)-2-methylbutanoic acid, 4 hydrochloride]",5.01,9.3,62* %,75* %,

# Second part, led by results:
EC50 [3] [nM],furin enzyme pIC50 [4],SMILES,"% inhibition of hydroxyproline in lung ([2]; 10 mg/kg, Oral, Once daily)","% inhibition of total TGFβ in lung (TGFβ in mouse lung; 10 mg/kg, Oral, Once daily)",also measured
3.16,9.1,"CC(=O)NCC1CCN(Cc2cc(Oc3ccc(N4CCN(CCO)CC4)nc3)nc(-c3cc(Cl)cc(Cl)c3)c2)CC1 [Example 180, N-((1-((2-(3,5-Dichlorophenyl)-6-((6-(4-(2-hydroxyethyl)piperazin-1-yl)pyridin-3-yl)oxy)pyridin-4-yl)methyl)piperidin-4-yl)methyl)acetamide]",,,"% inhibition of hydroxyproline in lung [2, 5]: 56* %; % inhibition of total TGFβ in lung (TGFβ in mouse lung; [5]): 60* %"
25.1,8.6,"O=C(O)CC1CCN(Cc2cc(Oc3cnc(N4CCNCC4)nc3)nc(-c3cc(Cl)cc(Cl)c3)c2)CC1 [Example 206, 2-(1-((2-(3,5-Dichlorophenyl)-6-((2-(piperazin-1-yl)pyrimidin-5-yl)oxy)pyridin-4-yl)methyl)piperidin-4-yl)acetic acid]",6%,−11%,
25.1,8.6,"CS(=O)(=O)CCCN1CCN(c2ncc(Oc3cc(CN4CCC(CC(=O)O)CC4)cc(-c4cc(Cl)cc(Cl)c4)n3)cn2)CC1 [Example 242, 2-(1-((2-(3,5-Dichlorophenyl)-6-((2-(4-(3-(methylsulfonyl)propyl)piperazin-1-yl)pyrimidin-5-yl)oxy)pyridin-4-yl)methyl)piperidin-4-yl)acetic acid]",−1%,40* %,
25.1,8.9,"O=C(O)CC1CCN(Cc2cc(Oc3cnc(N4CCN(CCO)CC4)nc3)nc(-c3cc(Cl)cc(Cl)c3)c2)CC1 [Example 306, 2-(1-((2-(3,5-dichlorophenyl)-6-((2-(4-(2-hydroxyethyl)piperazin-1-yl)pyrimidin-5-yl)oxy)pyridin-4-yl)methyl)piperidin-4-yl)acetic acid]",11%,31* %,
20,8.9,"O=C(O)CC1CCN(Cc2cc(Oc3cnc(N4CCN5CCC4C5)nc3)nc(-c3cc(Cl)cc(Cl)c3)c2)CC1 (stereo not drawn) [Example 334, 2-(1-((2-((2-(1,4-Diazabicyclo[3.2.1]octan-4-yl)pyrimidin-5-yl)oxy)-6-(3,5-dichlorophenyl)pyridin-4-yl)methyl)piperidin-4-yl)acetic acid, 4 hydrochloride]",,,"% inhibition of hydroxyproline in lung ([2]; 30 mg/kg, Oral, Once daily): 34* %; % inhibition of total TGFβ in lung (TGFβ in mouse lung; 30 mg/kg, Oral, Once daily): 36* %"
50.1,8.7,"CN1CCN(c2cnc(Oc3cc(CN4CCC(CC(=O)O)CC4)cc(-c4cc(Cl)cc(Cl)c4)n3)cn2)CC1 [Example 339, 2-(1-((2-(3,5-Dichlorophenyl)-6-((5-(4-methylpiperazin-1-yl)pyrazin-2-yl)oxy)pyridin-4-yl)methyl)piperidin-4-yl)acetic acid]",4%,22%,
